From patent US7935525B2, “Inhibition of ATF2 activity to treat cancer” (Mount Sinai School of Medicine, priority 2001, dated 2011)
Entries after “also recorded” stand apart in the source; their conditions may differ. No end group written: not given here.

Tests used:
LU1205 tumor cells = test: Growth of transplanted LU1205 tumors in mice; type: in vivo
Protocol: (§1) Tumor growth and metastasis evaluation in vivo. Cell lines established in culture to constitutively or inducibly express the peptide were injected into mice subcutaneously (S.C.). LU1205, FEMX and SW-1 cells that expressed control or peptide II were trypsinized, resuspended in PBS and injected SC (1×10^6) into 6-7 week old mice in the lower flank. When the tumor reached the size of about 50 mm^3, 5 μM of SB203580 was injected into four areas of the LU1205 tumors every 4 days during a 2-week period. For FEMX tumors UCN-01 (2.5 mg/kg) was fed by gavage twice a day, three times per week for a total of 2 weeks. Tumor growth was monitored every two days. SW-1 cells expressing peptide II under tet-inducible vector were injected SC (1×10^6). When tumors reached a size of about 50 mm^3, the mice received doxycycline in their drinking water ([…]) for a total of 2-4 weeks. At the end of the experiment, the tumors were excised and weighed. The lungs and other organs were subjected to histopathological examination to detect metastatic lesions.

JNK = test: In vitro phosphorylation of the peptide; type: biochemical
[1] = system: ATF2/c-Jun transcriptional activity; test: Jun2-Luciferase reporter in SW1 clones; type: cell-based, mouse
Protocol: Transient transfection and transcriptional analysis. Mouse melanoma tumors grown in culture were transfected with control vector or peptide II expressing luciferase or β-galactosidase constructs (Bhoumik et al., Clin. Cancer Res. 2001; 7(2):331-42). Transient transfection of different reporter constructs (0.5 cg) with expression vectors and pCMV-Cgal (0.25 Cg) into 5×10^5 melanoma cells was performed using Lipofectamine™ (Life Technologies-BRL). Transfection of the Jun2-luciferase construct permitted us to monitor activity of ATF2 and c-Jun. Jun2-Luc and TRE-Luc constructs were previously described (van Dam H., et al., EMBO J. 1993; 12:479-487; and van Dam H., et al., EMBO J. 1995; 14:1798-1811). Luciferase activity was determined using the Luciferase assay system (Promega®, Madison, Wis.) and normalized on the basis of β-galactosidase (β-Gal) levels in transfected cells. Proteins were prepared for β-Gal and Luciferase analysis at the selected time points after transfection.

AP1 complex = conditions: previous studies; cited from earlier work
[2] = system: 293T human kidney embryonic cells; test: Apoptosis by FACS (hypodiploid fraction); type: cell-based; conditions: peptide-expressing 293T; normal growth conditions
Protocol: [Worded in the source for another cell line; this cell line is reported under the same test.] (§2) Treatment and apoptosis studies of stably transfected melanoma cells. Cells were exposed to UVC at 75 J/m^2 as previously described (Ronai, Z., et al., Oncogene 1998; 16:523-531). SB203580 (1-10 μM) (Calbiochem®, San Diego, Calif.), NCS (50-100 ng/ml) and mitomycin C (MMC) (0.2-1 μM) were used to treat melanoma cells. Flow cytometric analysis was performed on a FACSCalibur™ flow cytometer (Becton Dickinson) using CellQuest™ software as described previously (Nicoletti et al., J. Immunol. Methods 1991; 139:271-279). Cells were pelleted and resuspended in 0.5 ml of hypotonic buffer with 0.1% Triton X-100 containing PI (40 μg/ml) and DNase-free RNase A (1 mg/ml). Cells were incubated at 37° C. for 30 min and analyzed on a FACSCalibur™ flow cytometer (Becton Dickinson). The percentage of cells to the left of the diploid G0/1 peak, characteristic of hypodiploid cells that have lost DNA, was defined as the percentage of apoptotic cells. Analysis was performed with light scatter gating. Surface expression of Fas was determined using anti-Fas-PE antibody (PharMingen® CA) and flow cytometric analysis. Cell surface expression is measured as mean fluorescence intensity (MFI).

[3] = system: human melanocytes (FOM71); test: Apoptosis by FACS (hypodiploid fraction); type: cell-based; conditions: transient peptide expression; UV 75 J/m^2; 36 h
Protocol: as §2

Fas promoter = Fas promoter activity (-460 Fas promoter region); type: cell-based, human; conditions: peptide-expressing LU1205
Jun2-Luc = Jun2-Luc reporter in ATF2 null cells; type: cell-based
ATF2 = ATF2 phosphorylation in peptide-expressing melanoma cells; type: cell-based, human; conditions: vs control vector cells
SW1 cells = test: Cell cycle distribution after synchronization and serum stimulation; type: cell-based, mouse; conditions: 18-24 h after serum stimulation of synchronized cells
p38 = p38 (Homo sapiens, UniProt Q16539); test: In vitro phosphorylation of the peptide; type: biochemical
p38, sequence (Q16539 whole entry): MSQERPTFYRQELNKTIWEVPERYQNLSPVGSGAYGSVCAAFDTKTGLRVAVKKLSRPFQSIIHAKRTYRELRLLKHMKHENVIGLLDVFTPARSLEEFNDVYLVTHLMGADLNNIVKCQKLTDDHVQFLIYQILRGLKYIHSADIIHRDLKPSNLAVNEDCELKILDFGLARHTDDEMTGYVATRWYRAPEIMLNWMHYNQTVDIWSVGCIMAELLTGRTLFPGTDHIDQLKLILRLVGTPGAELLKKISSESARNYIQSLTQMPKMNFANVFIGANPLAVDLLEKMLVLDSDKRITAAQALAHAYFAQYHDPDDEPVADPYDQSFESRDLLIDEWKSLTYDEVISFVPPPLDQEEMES

[4] = system: MCF7 breast cancer-derived cell line; test: Apoptosis by FACS (hypodiploid fraction); type: cell-based, human; conditions: peptide-expressing MCF7
Protocol: [Worded in the source for another cell line; this cell line is reported under the same test.] as §2

[5] = system: WM1552 early-phase melanoma cell line; test: Apoptosis by FACS (hypodiploid fraction); type: cell-based, human; conditions: peptide-expressing WM1552; UV-C 75 J/m2; 36 h
Protocol: as §2

[6] = system: Adriamycin-resistant MCF7 cell line (MCF7-Adr); test: Apoptosis by FACS (hypodiploid fraction); type: cell-based, human; conditions: peptide-expressing MCF7-Adr; neo controls 3-fold; 36 h
Protocol: [Worded in the source for another cell line; this cell line is reported under the same test.] as §2

FEMX cells = test: Apoptosis by FACS (hypodiploid fraction); type: cell-based, human
Protocol: as §2

FAS = test: Cell surface FAS receptor by FACS in SW1 cells; type: cell-based, mouse; conditions: peptide-expressing SW1 vs control
Protocol: Electrophoretic mobility shift assays were performed as described. (Ivanov and Ronada, J Biol Chem 1999; 274(20):14079-89). GST binding assays were performed with GST-peptide II as described (Adler et al., Proc Natl Acad Sci USA 1995; 92 10585-9). SW1 cells expressing control vector or peptide II were subjected to FACS analysis following their incubation with antibodies to the cell surface receptor of FAS as described above.

FEMX tumor cells = test: Growth of transplanted FEMX tumors in mice; type: in vivo
Protocol: as §1

LU1205 cells = test: Apoptosis by FACS (hypodiploid fraction); type: cell-based, human; conditions: peptide-expressing LU1205
Protocol: as §2

In the case of “peptide II: N-terminal polypeptide fragment of ATF2, amino acid residues 50-100, expressed from pcDNA3 with HA-penetratin tag (EMTLKFGPARNDSVIVADQTPTPTRFLKNCEEVGLFNELASPFENEFKKAS; also: HA-penetratin tag, position not given here; UniProt P15336 50-100, looked up, fragment)”, the “inhibition of tumor growth” value (LU1205 tumor cells; combination: peptide-expressing LU1205 + SB203580) is reported as “significant inhibition of tumor growth; also recorded: more effective”, the tumor cell growth (LU1205 tumor cells; single agent: inhibitor injected into tumor, or peptide expressed in tumor cells) is reported as “grew much more slowly” and the “phosphorylation of the peptide by JNK” value (JNK) is reported as “Neither JNK nor p38 was found capable of phosphorylating”. For the same substance, the “decrease in basal levels of ATF2 transcriptional activities” value ([1]; SW1 clones constitutively expressing peptide) was 5 fold, the “ATF2 transcriptional activities in response to UV-treatment” value ([1]; SW1 clones, UV) was “decrease” and the “inhibition of transcriptional activity mediated from the AP1 complex” value (AP1 complex) was 3 fold. For the same substance, the “increase in the degree of basal apoptosis” value [2] was 5 fold, the “sensitivity to undergo UV-induced apoptosis” value [3] was “did not cause a significant increase” and the “Fas promoter mediated transcription” value (Fas promoter) was “increase in Fas-mediated transcription”. The Jun2-Luc activities (Jun2-Luc) was “did not affect”, the “ATF2 phosphorylation after UV-treatment” value (ATF2; UV-treated) was “reduced” and the “degree of ATF2 phosphorylation” value (ATF2; non-stressed growth conditions) was “higher degree of ATF2 phosphorylation”. For the same substance, the “number of cells in the S-phase, lower than control cell population” value (SW1 cells) was 2 fold, the “phosphorylation of the peptide by p38” value (p38) was “Neither JNK nor p38 was found capable of phosphorylating” and the “increase in sensitivity to UCN-01 elicited apoptosis” value [4] was ~2 fold. The “increase in degree of apoptosis following UV-treatment relative to non-irradiated cells” value ([4]; neo control 4-fold, 36 h) was ~9 fold, the “effect on the basal level of apoptosis” value ([4]; no treatment) was “minimal effect” and the “sensitization to UV-induced apoptosis” value [5] was “no longer was able to elicit sensitization”. The “increase in apoptosis following UV-treatment” value [6] was 8 fold, the “increase in the degree of UCN-01-elicited apoptosis” value (FEMX cells; peptide-expressing FEMX vs parent) was > 3 fold and the “apoptotic fraction of UV-treated cells” value (FEMX cells; peptide-expressing FEMX, UV-C 75 J/m2, 36 h, neo control 13%) was 28%. For the same substance, the “level of FAS on the cells” value (FAS) was “greatly increased”, the tumor growth (FEMX tumor cells; co-treatment: peptide-expressing FEMX + UCN-01) was “tumor regression” and the tumor cell growth (FEMX tumor cells; single agent: UCN-01 by gavage, or peptide expressed in tumor cells) was “grew much more slowly”. The “increase in apoptosis comparable to neo expressing cells” value (LU1205 cells; Adriamycin + verapamil) was 10 fold, the “increase in degree of apoptosis over control neo cells given Adriamycin and verapamil” value (LU1205 cells; Adriamycin + verapamil) was 50% and the “apoptotic fraction of UV-treated cells” value (LU1205 cells; UV-C 75 J/m2, 36 h, neo control 15%) was 38%. The “increase in the degree of cell death” value (LU1205 cells; higher doses (10 μM) of SB203580, 36 h) was “greater than 6 fold”, the “increase in cell death” value (LU1205 cells; low doses of SB203580, 36 h) was 3 fold and the “increase in the sensitivity to UV-induced apoptosis” value (LU1205 cells; treatment with JAK inhibitor AG490) was 3 fold.
